pIC50: −log10 of the molar value. Values joined by “and” are separate entries in the source; they are usually repeats but may differ in a detail not shown here. Equal entries are not always repeated. Structures can show the parent of a compound that is named as a salt. Where two headings read alike, the source gives them in different places.
Tests used:
[1] = target: T1, His-tagged human SHIP2 phosphatase domain (Homo sapiens, UniProt O15357); assay: Malachite green phosphate assay, recombinant SHIP2 phosphatase domain (High Throughput Biomedicine Unit, 384-well); assay type: biochemical
T1 construct: we produced a His-tagged human SHIP2 phosphatase domain; His; made in house
T1 sequence (O15357 419-732 limits assumed): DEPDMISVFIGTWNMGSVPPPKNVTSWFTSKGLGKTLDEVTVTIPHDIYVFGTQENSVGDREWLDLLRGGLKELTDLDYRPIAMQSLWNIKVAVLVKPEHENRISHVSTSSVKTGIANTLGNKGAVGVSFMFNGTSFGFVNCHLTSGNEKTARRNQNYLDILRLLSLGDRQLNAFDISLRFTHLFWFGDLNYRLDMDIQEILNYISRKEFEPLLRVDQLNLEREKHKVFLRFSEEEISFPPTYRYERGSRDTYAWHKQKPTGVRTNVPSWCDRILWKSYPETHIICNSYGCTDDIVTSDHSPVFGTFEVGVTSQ
Experimental: (§1) Recombinant His-tagged human SHIP2 and SHIP1 phosphatase domains were produced as previously described ([17]). […] Immunocomplexes were bound to protein G-Sepharose beads at +4°C for 2 h and washed 3 times with malachite green phosphate assay buffer {10 mM 4-(2-hydroxyethyl)-1-piperazineethanesulfonic acid (HEPES), pH 7.25, 6 mM MgCl2, 0.1% 3-[(3-cholamidopropyl)dimethylammonio]-1-propanesulfonate (CHAPS), 250 mM sucrose, and 0.25 mM EDTA}.
(§2) The catalytic activities of the recombinant SHIP2 and SHIP1 phosphatase domains were determined by malachite green phosphate assay at the High Throughput Biomedicine Unit (University of Helsinki) using D-myo-PI(3,4,5)P3 (Echelon Biosciences, Salt Lake City, UT, USA). Different volumes, resulting in desired final concentrations of inhibitors, were transferred to the wells of 384-well plates by using the Echo550 acoustic dispenser (Labcyte, San Jose, CA, USA). Recombinant protein (100 ng) in reaction buffer {10 mM HEPES, pH 7.25, 6 mM MgCl2, 0.1% CHAPS, 250 mM sucrose, and 0.25 mM EDTA} was placed in each well (7.5 µl), and the plates were preincubated at room temperature for 15 min. The phosphatase reaction was started by adding PI(3,4,5)P3 diluted in the reaction buffer (7.5 µl) to each well to reach a final concentration of 100 µM PI(3,4,5)P3 in the 15 µl reaction volume. The plates were incubated at room temperature for 20 min, after which, 15 µl BIOMOL green reagent (Biomol, Plymouth Meeting, PA, USA) was added to each well, and then the plates were incubated for another 25 min at room temperature. Absorbance was measured at 620 nm using a Pherastar FS plate reader (BMG Labtech, Offenburg, Germany). For the manual malachite green phosphate assay in 96-well plates [see Fig. 1; and activity measurement of phosphatase and tensin homolog (PTEN; Signalchem, Richmond, BC, Canada)], the reaction volume was increased to 50 µl, and 100 µl Biomol Green Reagent was added. The catalytic activity of SHIP2 immunoprecipitated from cell and tissue lysates was determined as in Saurus et al. ([22]), omitting SHIP2 inhibitors in lysis buffer, immunoprecipitation reaction, wash, and assay buffers. AS1949490 was synthesized, as described in Supplemental Fig. S1A, or purchased from Tocris Bioscience (Bristol, United Kingdom).

[2] = target: T2, phosphatase and tensin homolog (PTEN) (Homo sapiens, UniProt P60484); assay: Manual malachite green phosphate assay, PTEN activity; assay type: biochemical
T2 construct: purchased Signalchem

[3] = tested on: SHIP2 immunoprecipitated from the lysates of L6 myotubes; assay type: cell-based, rat; details: 20–24 h
Experimental: (§3) Immortalized human podocytes were maintained as previously described ([10]). […] Podocytes were lysed as previously described ([21]).
as §1, §2
Hydrogen bond is shown in green. Hydrophobic residues are shown in gray, positive-charged residues in blue, and negative-charged residues in red. […] The catalytic activity of SHIP2 was measured by manual malachite green phosphate assay.

[4] = target: T3, SHIP2 immunoprecipitated from the lysates of podocytes (Homo sapiens, UniProt O15357); assay: Activity of SHIP2 immunoprecipitated from podocytes; assay type: cell-based; details: 20–24 h
T3 construct: endogenous in cells; host or cells: immortalized human podocytes
T3 sequence (O15357 1-1258): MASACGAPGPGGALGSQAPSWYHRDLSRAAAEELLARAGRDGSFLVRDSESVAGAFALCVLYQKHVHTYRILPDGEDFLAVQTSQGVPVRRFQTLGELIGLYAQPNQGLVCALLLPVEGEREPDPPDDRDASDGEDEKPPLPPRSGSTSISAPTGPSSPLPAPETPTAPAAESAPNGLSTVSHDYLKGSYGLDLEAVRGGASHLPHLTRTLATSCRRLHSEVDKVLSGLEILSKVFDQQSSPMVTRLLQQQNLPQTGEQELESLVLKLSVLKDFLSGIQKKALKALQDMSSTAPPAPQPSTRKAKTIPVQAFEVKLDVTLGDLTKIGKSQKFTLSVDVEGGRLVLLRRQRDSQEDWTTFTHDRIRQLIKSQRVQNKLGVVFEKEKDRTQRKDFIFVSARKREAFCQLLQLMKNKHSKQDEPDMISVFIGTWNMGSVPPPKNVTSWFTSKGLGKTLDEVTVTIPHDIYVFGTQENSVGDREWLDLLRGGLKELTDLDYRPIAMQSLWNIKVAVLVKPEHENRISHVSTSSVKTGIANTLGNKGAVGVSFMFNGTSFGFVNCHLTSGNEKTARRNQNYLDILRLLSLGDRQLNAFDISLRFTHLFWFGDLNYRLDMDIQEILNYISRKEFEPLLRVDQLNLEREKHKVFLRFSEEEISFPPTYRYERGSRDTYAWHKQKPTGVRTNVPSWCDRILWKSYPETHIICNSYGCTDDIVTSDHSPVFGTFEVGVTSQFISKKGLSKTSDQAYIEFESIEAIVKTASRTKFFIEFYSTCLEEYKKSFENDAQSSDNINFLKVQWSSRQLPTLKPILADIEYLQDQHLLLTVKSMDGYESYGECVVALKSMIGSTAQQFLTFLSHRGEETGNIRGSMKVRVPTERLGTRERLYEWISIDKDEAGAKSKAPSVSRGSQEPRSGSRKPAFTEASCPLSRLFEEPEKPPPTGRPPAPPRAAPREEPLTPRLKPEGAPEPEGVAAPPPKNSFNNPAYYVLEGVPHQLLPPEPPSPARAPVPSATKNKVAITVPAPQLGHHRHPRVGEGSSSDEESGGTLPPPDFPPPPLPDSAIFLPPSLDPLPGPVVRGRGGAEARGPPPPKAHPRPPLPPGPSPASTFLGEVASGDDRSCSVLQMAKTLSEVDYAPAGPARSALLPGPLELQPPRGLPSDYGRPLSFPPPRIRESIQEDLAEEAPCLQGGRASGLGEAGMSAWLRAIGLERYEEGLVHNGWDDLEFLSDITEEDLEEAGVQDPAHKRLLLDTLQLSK
Experimental: as §3, §1
as §2, with “The plates were incubated at room temperature for 20 min, after which, 15 µl BIOMOL green reagent (Biomol, Plymouth Meeting, PA, USA) was added to each well, and then the plates were incubated for another 25 min at room temperature.” left out, “For the manual malachite green phosphate assay in 96-well plates [see Fig. 1; and activity measurement of phosphatase and tensin homolog (PTEN; Signalchem, Richmond, BC, Canada)], the reaction volume was increased to 50 µl, and 100 µl Biomol Green Reagent was added.” left out, “AS1949490 was synthesized, as described in Supplemental Fig. S1A, or purchased from Tocris Bioscience (Bristol, United Kingdom).” left out
Hydrogen bond is shown in green. […] The catalytic activity of SHIP2 was measured by manual malachite green phosphate assay.

T2 sequence (P60484 whole entry, species assumed): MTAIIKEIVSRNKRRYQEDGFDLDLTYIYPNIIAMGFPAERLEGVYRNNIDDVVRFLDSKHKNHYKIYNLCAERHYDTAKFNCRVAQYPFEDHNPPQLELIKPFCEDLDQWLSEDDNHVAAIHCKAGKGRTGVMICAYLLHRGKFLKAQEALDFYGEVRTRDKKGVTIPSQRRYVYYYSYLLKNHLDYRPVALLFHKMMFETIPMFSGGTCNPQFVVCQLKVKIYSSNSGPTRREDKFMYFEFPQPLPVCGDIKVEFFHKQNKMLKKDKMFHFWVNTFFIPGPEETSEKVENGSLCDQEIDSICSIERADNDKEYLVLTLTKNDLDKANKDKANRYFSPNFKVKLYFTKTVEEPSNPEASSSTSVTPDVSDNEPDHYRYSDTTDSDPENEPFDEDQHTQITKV

Row | SMILES | SHIP2 Inhibition efficiency ([1]; inhibitors at 100 µM concentration, 100 µM) | PTEN Inhibition efficiency ([2]; inhibitors at 100 µM concentration) [%] | pIC50 ([2]; manual assay) | reduction of SHIP2 activity in myotubes ([3]; 20 µM) [%] | reduction of SHIP2 activity in podocytes ([4]; 20 µM) | inhibition at 100 µM ([1]; inhibitors at 100 µM concentration, read-out: SHIP2 Inhibition efficiency) [%] | pIC50 ([1]; purified His-tagged phosphatase domain, 100 µM PI(3,4,5)P3) | inhibition of PTEN (in words) [2] | PTEN IC50 ([2]; manual assay) [µM] | reduction of SHIP2 activity in myotubes ([3]; 1 mM) [%] | SHIP2 overexpression-induced SHIP2 activity in myotubes ([3]; L6 myotubes overexpressing SHIP2, 1 mM) | reduction of SHIP2 activity in podocytes ([4]; 1 mM) [%]
1 | C[C@H](NC(=O)c1sccc1OCc1ccc(Cl)cc1)c1ccccc1 [AS1949490] | 26% and 25.9% | 0 | < 4.30 | ~30 | 20–30% |  |  |  |  |  |  | 
2 | CN(C)C(=N)N=C(N)N [Metformin, 1,1-Dimethylbiguanide hydrochloride] |  |  |  | ~30 | 20–30% | 39.4 | 5.22 | does not inhibit | >50 | 24 | to the level in the control | 14
